In publication PMC4890880 (ACS infectious diseases, 2016):
Where a name gives a salt, the structure may show the parent alone. Read-outs that look alike come from different tables or passages of the source.

Experiments:
[1] = tested on: P. falciparum 3D7 parasites; experiment: Asexual erythrocytic-stage SYBR Green I proliferation assay, 1536-well; format: cell-based, Plasmodium falciparum
[2] = tested on: Plasmodium berghei (Pb-Luc) exoerythrocytic-stage parasites; experiment: microbe, parasite or virus in culture; conditions: for inhibition at 10 µM: read-out: PbLuc max inhibition (%) @ 10 uM
HepG2-A16-CD81EGFP cells [3] = experiment: cells; conditions: Homo sapiens; for IC50: HepG2, read-out: Tox IC50; for inhibition at 50 µM: HepG2, read-out: Tox max inhibition (%) @ 50 uM; for inhibition at 10 µM: HepG2, read-out: Tox max inhibition (%) @ 10 uM
[4] = tested on: Plasmodium cynomolgi exoerythrocytic-stage small (hypnozoites) and large (liver stage schizonts) parasites; experiment: P. cynomolgi liver assay in primary hepatocytes; conditions: Plasmodium cynomolgi, Hepatocyte
[5] = target: QuantiLum Recombinant Luciferase (Photinus pyralis, UniProt P08659); experiment: Bioluminescence quantification of compound luciferase inhibition; conditions: for Emax: read-out: LucInhib max inhibition
Sequence of QuantiLum Recombinant Luciferase (P08659 whole entry): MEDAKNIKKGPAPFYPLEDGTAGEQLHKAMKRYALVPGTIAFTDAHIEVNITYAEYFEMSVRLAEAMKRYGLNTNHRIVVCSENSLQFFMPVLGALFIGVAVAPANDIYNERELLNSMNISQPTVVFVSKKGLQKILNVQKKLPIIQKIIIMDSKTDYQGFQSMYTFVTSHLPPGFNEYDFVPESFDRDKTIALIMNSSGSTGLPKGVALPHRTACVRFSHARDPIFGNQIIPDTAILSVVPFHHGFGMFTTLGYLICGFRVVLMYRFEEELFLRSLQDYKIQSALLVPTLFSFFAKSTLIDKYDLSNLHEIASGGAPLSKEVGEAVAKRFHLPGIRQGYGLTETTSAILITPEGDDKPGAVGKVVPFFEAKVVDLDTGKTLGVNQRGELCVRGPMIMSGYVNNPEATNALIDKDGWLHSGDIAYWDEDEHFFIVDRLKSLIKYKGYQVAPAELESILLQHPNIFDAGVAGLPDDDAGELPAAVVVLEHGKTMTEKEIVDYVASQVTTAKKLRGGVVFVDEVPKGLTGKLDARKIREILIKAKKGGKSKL

HepG2-A16-CD81EGFP cells [6] = conditions: human, 50 uM
HepG2-A16-CD81EGFP cells [7] = experiment: cells; conditions: Homo sapiens, HepG2, read-out: % inhibition
HepG2-A16-CD81EGFP cells [8] = experiment: cells; conditions: Homo sapiens, HepG2, read-out: % inhibition; remark: listed apart in the source
[9] = tested on: Plasmodium berghei (Pb-Luc) exoerythrocytic-stage parasites; conditions: read-out: P. berghei (liver) IC50; Table S1, validation set of 50 antimalarials; Pb-Luc
[10] = Plasmodium falciparum, 3D7, read-out: P. falciparum (blood) IC50, Table S1, validation set of 50 antimalarials
[11] = read-out: P. berghei (liver) IC50, Table S1, validation set of 50 antimalarials, Pb-Luc
[12] = HepG2, read-out: HepG2 Tox% @ 50 uM rep1
[13] = read-out: Inhibition% @ 50 uM rep1
[14] = read-out: Inhibition% @ 50 uM rep2
[15] = read-out: PbLuc IC50, dose response, 1/3 dilutions, max conc. 10 or 50 uM, unit inferred
[16] = read-out: PbLuc max inhibition (%) @ 50 uM
[17] = read-out: % inhibition normalized to untreated control, Large
[18] = read-out: % inhibition normalized to untreated control, Small
[19] = HepG2, read-out: HepG2 Tox% @ 50 uM rep2
[20] = read-out: P. falciparum (blood) IC50, Table S1, validation set of 50 antimalarials

`CCCCN(CCCC)CCC(O)c1cc2c(Cl)cc(Cl)cc2c2cc(C(F)(F)F)ccc12` (stereo not drawn) [Halofantrine, reference compound] showed an IC50 [1, 10] of 1.5 nM and an IC50 [2, 11] of 2840 nM.
Work on `CCN(CCO)CCCC(C)Nc1ccnc2cc(Cl)ccc12` (stereo not drawn) [Hydroxychloroquine, reference compound] yielded an IC50 [1, 10] of 13.9 nM and an IC50 [2, 11] greater than 12500 nM.
`CCCCN(CCCC)CC(O)c1cc(Cl)cc2c1-c1ccc(Cl)cc1/C2=C/c1ccc(Cl)cc1` (stereo not drawn) [Lumefantrine, reference compound] gave an IC50 [1, 10] of 7.3 nM and an IC50 [2, 11] greater than 12500 nM.
`O=C(Nc1ccc(-c2nc3cc(NC(=O)c4ccc(Cl)cc4)ccc3[nH]2)cc1)c1ccc(Cl)cc1` [MMV006962] gave a cytotoxicity at 50 µM (HepG2-A16-CD81EGFP cells [3]; [12]) of 96%, an IC50 (HepG2-A16-CD81EGFP cells [3]) of 9200 nM and an inhibition at 50 µM (HepG2-A16-CD81EGFP cells [3]) of 99%. The inhibition at 50 µM [2, 13] was 103%, the inhibition at 50 µM [2, 14] was 103% and the IC50 [2, 15] was 501 nM. For the same molecule, the inhibition at 50 µM [2, 16] was 99%, the inhibition at 0.1 µM [4, 17] was 34% and the inhibition at 1 µM [4, 17] was 25%. The inhibition at 10 µM [4, 17] was 10%, the inhibition at 0.1 µM [4, 18] was -8% and the inhibition at 1 µM [4, 18] was 11%. For the same molecule, the inhibition at 10 µM [4, 18] was 17%.
With `COc1ccccc1CNC(=O)CCn1c(=O)[nH]c2ccsc2c1=O` [MMV019066] the cytotoxicity at 50 µM (HepG2-A16-CD81EGFP cells [3]; [12]) was -14%, the cytotoxicity at 50 µM (HepG2-A16-CD81EGFP cells [3]; [19]) was -5.32% and the IC50 (HepG2-A16-CD81EGFP cells [3]) was greater than 10000 nM. It also gave an inhibition at 10 µM (HepG2-A16-CD81EGFP cells [3]) of -2.17%, an inhibition at 50 µM [2, 13] of 94% and an inhibition at 50 µM [2, 14] of 95%. The IC50 [2, 15] was 56.1 nM, the inhibition at 10 µM [2] was 104% and the inhibition at 0.1 µM [4, 17] was 3%. For the same molecule, the inhibition at 1 µM [4, 17] was -2%, the inhibition at 10 µM [4, 17] was 5% and the inhibition at 0.1 µM [4, 18] was 10%. For the same molecule, the inhibition at 1 µM [4, 18] was 11%, the inhibition at 10 µM [4, 18] was 3% and the IC50 [5] was greater than 20000 nM. The Emax [5] was 21%.
Molecule `O=C(Nc1cccc(C(F)(F)F)c1)c1cc(Cl)ccc1O` [MMV665807] has a cytotoxicity at 50 µM (HepG2-A16-CD81EGFP cells [3]; [12]) of 98%, a cytotoxicity at 50 µM (HepG2-A16-CD81EGFP cells [3]; [19]) of 99% and an IC50 (HepG2-A16-CD81EGFP cells [3]) of 910 nM. It also gave an inhibition at 50 µM (HepG2-A16-CD81EGFP cells [3]) of 94%, an inhibition at 50 µM [2, 13] of 103% and an inhibition at 50 µM [2, 14] of 103%. The IC50 [2, 15] was 210 nM, the inhibition at 50 µM [2, 16] was 101% and the inhibition at 0.1 µM [4, 17] was 6%. The inhibition at 1 µM [4, 17] was 10%, the inhibition at 10 µM [4, 17] was 12% and the inhibition at 0.1 µM [4, 18] was 17%. It also gave an inhibition at 1 µM [4, 18] of 34% and an inhibition at 10 µM [4, 18] of 24%.
In the case of `CCCC(c1nnnn1C1CCCCC1)N1CCN(C(=O)c2ccco2)CC1` (stereo not drawn) [MMV666093], the “HepG2 Tox% @ 50 uM rep1” value (HepG2-A16-CD81EGFP cells [6]) is reported as -6%, the inhibition at 50 µM (HepG2-A16-CD81EGFP cells [7]) is reported as -5.78% and the inhibition at 50 µM (HepG2-A16-CD81EGFP cells [8]) is reported as -2.45%. For the same molecule, the inhibition at 50 µM [2, 13] was 52% and the inhibition at 50 µM [2, 14] was 19%.
`COc1ccc(C2=C(c3ccc(OC)cc3)C3(c4ccccc4)C(=O)C2(c2ccccc2)C2C(=O)N(c4ccc(C)cc4)C(=O)C23)cc1` (stereo not drawn) [MMV666101] showed a cytotoxicity at 50 µM (HepG2-A16-CD81EGFP cells [3]; [12]) of 0.41%, a cytotoxicity at 50 µM (HepG2-A16-CD81EGFP cells [3]; [19]) of 3.59% and an IC50 (HepG2-A16-CD81EGFP cells [3]) greater than 10000 nM. It also gave an inhibition at 10 µM (HepG2-A16-CD81EGFP cells [3]) of 1.34%, an inhibition at 50 µM [2, 13] of 96% and an inhibition at 50 µM [2, 14] of 100%. For the same molecule, the IC50 [2, 15] was 201 nM, the inhibition at 10 µM [2] was 106% and the inhibition at 0.1 µM [4, 17] was 7%. It also gave an inhibition at 1 µM [4, 17] of 11%, an inhibition at 10 µM [4, 17] of 17% and an inhibition at 0.1 µM [4, 18] of 4%. It also gave an inhibition at 1 µM [4, 18] of 19%, an inhibition at 10 µM [4, 18] of 11% and an IC50 [5] greater than 20000 nM. It also gave an Emax [5] of 18%.
For `CN(C)c1ccc(-c2nc3cc(N)ccc3[nH]2)cc1` [MMV666102], the “HepG2 Tox% @ 50 uM rep1” value (HepG2-A16-CD81EGFP cells [6]) was 29%, the inhibition at 50 µM (HepG2-A16-CD81EGFP cells [7]) was 29.4% and the inhibition at 50 µM (HepG2-A16-CD81EGFP cells [8]) was 32.6%. For the same molecule, the inhibition at 50 µM [2, 13] was 97% and the inhibition at 50 µM [2, 14] was 94%.
In the case of `COCCN(C(=O)Cc1cccs1)C(C(=O)NCc1ccc(OC)cc1)c1ccc(C(C)C)cc1` (stereo not drawn) [MMV666105], the “HepG2 Tox% @ 50 uM rep2” value (HepG2-A16-CD81EGFP cells [6]) is reported as 100%, the inhibition at 50 µM (HepG2-A16-CD81EGFP cells [7]) is reported as 98.8% and the inhibition at 50 µM (HepG2-A16-CD81EGFP cells [8]) is reported as 99.9%. It also gave an inhibition at 50 µM [2, 13] of 104% and an inhibition at 50 µM [2, 14] of 105%.
With `OC(c1cc(C(F)(F)F)nc2c(C(F)(F)F)cccc12)C1CCCCN1` (stereo not drawn) [Mefloquine (+ RS), Mefloquine, reference compound] the IC50 [1, 20] was 16.6 nM and the IC50 [2, 11] was 2330 nM.
`CN(C)c1ccc2nc3ccc(=[N+](C)C)cc-3sc2c1` [Methylene Blue, reference compound] showed an IC50 [1, 10] of 7980 nM and an IC50 [2, 11] of 95.6 nM.
Molecule `CC(=O)N[C@@H](C(=O)O)C(C)(C)S` [N-acetyl-D-penicillamine, reference compound] has an IC50 [1, 20] greater than 62500 nM and an IC50 [9] greater than 12500 nM.
Molecule `COc1cc(N[C@H](C)CCCN)c2nccc(C)c2c1Oc1ccc(Cl)c(Cl)c1` [NPC-1161B, reference compound] has an IC50 [1, 20] of 1320 nM and an IC50 [9] of 3550 nM.
`CC(C)(C)NCc1cc(Nc2ccnc3cc(Cl)ccc23)c2c(c1O)CCCC2` [Naphthoquine, reference compound] showed an IC50 [1, 20] of 11.4 nM and an IC50 [9] of 391 nM.
`CCc1nc(N)nc(N)c1OCCCOc1ccccc1CCC(=O)O` [P218.HCl, reference compound] was tested, and the IC50 [1, 20] was 0.4 nM and the IC50 [9] was 0.916 nM.
Work on `Cc1cc(NS(=O)(=O)c2ccc(N)cc2)no1` [Sulfamethoxazole] yielded an IC50 [1, 10] greater than 10000 nM.
`COc1cc(Cc2cnc(N)nc2N)cc(OC)c1OC` [Trimethoprim] showed an IC50 [1, 10] of 5640 nM.
Trans-Mirincamycin [reference compound] gave an IC50 [1, 20] greater than 10000 nM and an IC50 [9] greater than 12500 nM.
